These results are taken from ChEMBL document CHEMBL1201862, “PubChem BioAssay data set” (2004).

Among the test systems are IGROV-1; SK-MEL-5; A498; MDA-MB-435; PC-3; NCI/ADR-RES; RPMI-8226; SR; CAKI-1; EKVX; K562; ACHN; SK-OV-3; NCI-H226; NCI-H23; UACC-257; SK-MEL-2; MDA-N; T47D; MCF7.
What all share (assay): NCI tumour cell line growth inhibition, 48 h

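A five-concentration, 48-hour dose response in 96-well plates underlies each endpoint, interpolated linearly between surrounding concentrations. The concentration for 50% growth inhibition is given as GI50.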 Active and inactive are the calls of the source. Cut-off read from the data, not from the text of the source: active = GI50 up to about 1.1 µM and inactive = higher.

In the case of `O=C1c2ccccc2C(=O)c2c1oc(=O)c1ccccc21`, the GI50 was 3.73 µM (inactive) in the assay on IGROV-1; 1.29 µM (inactive) with SK-MEL-5; 9.82 µM (inactive) in the assay with A498; 1.06 µM (active) in the assay with MDA-MB-435; 5.37 µM (inactive) with PC-3; 1.94 µM (inactive) in the assay on NCI/ADR-RES. Besides, the GI50 with RPMI-8226 is 3.63 µM (inactive); in the assay with SR, 3.75 µM (inactive); with CAKI-1, 6.21 µM (inactive); in the assay on EKVX, 5.77 µM (inactive); with K562 it was 4 µM (inactive); in the assay on ACHN it was 4.59 µM (inactive). Moreover, the GI50 is 9.25 µM (inactive) in the assay with SK-OV-3; 8.93 µM (inactive) with NCI-H226; 4.23 µM (inactive) in the assay on NCI-H23; 3.22 µM (inactive) in the assay with UACC-257; 4.84 µM (inactive) in the assay on SK-MEL-2; 2.2 µM (inactive) with MDA-N. Further, the GI50 in the assay on T47D is 5.47 µM (inactive); in the assay with MCF7, 2.21 µM (inactive).
With `Clc1ccccc1-c1nc(-c2ccncc2)no1` [PIFEXOLE], the GI50 was 71.3 µM (inactive) in the assay with IGROV-1; 22.9 µM (inactive) with SK-MEL-5; 37.6 µM (inactive) in the assay on A498; 48.6 µM (inactive) in the assay on MDA-MB-435; 78 µM (inactive) with PC-3; 30.9 µM (inactive) with NCI/ADR-RES. For the same molecule, the GI50 in the assay with RPMI-8226 is 44.2 µM (inactive); in the assay with SR, 18.5 µM (inactive); in the assay on CAKI-1, 57.3 µM (inactive); in the assay with EKVX it was 16.1 µM (inactive); in the assay with K562 it was 26.6 µM (inactive); in the assay with ACHN it was 88.1 µM (inactive). In addition, the GI50 in the assay on SK-OV-3 is > 100 µM (inactive); with NCI-H226 it was 98.9 µM (inactive); in the assay with NCI-H23 it was 49.4 µM (inactive); in the assay with UACC-257, 37.8 µM (inactive); in the assay with SK-MEL-2 it was > 100 µM (inactive); in the assay with MDA-N, 49.3 µM (inactive). In addition, the GI50 with T47D is 29.2 µM (inactive); in the assay with MCF7, 30 µM (inactive).
In the case of `O=c1ccc2[n+]([O-])c3ccc(O)cc3oc-2c1` [RESAZURIN], the GI50 in the assay with IGROV-1 is 25.2 µM (inactive); with SK-MEL-5 it was 2.72 µM (inactive); with A498, 39.2 µM (inactive); in the assay with MDA-MB-435, 1.89 µM (inactive); in the assay on PC-3 it was 7.23 µM (inactive); in the assay on NCI/ADR-RES, 13.4 µM (inactive). Also, the GI50 was 6.01 µM (inactive) in the assay with RPMI-8226; 15.3 µM (inactive) in the assay with SR; 32.5 µM (inactive) with CAKI-1; 28.8 µM (inactive) in the assay with EKVX; 10.5 µM (inactive) with K562; 5.65 µM (inactive) in the assay with ACHN. In addition, the GI50 with SK-OV-3 is 66.5 µM (inactive); with NCI-H226 it was 21.1 µM (inactive); with NCI-H23, 2.56 µM (inactive); with UACC-257 it was 11.2 µM (inactive); in the assay on SK-MEL-2, 10 µM (inactive); in the assay with MDA-N, 1.84 µM (inactive). In addition, the figures for the GI50 with T47D and in the assay with MCF7 were 56.4 µM (inactive) and 4.95 µM (inactive), respectively.
